Assays:
Assay in all cases: relative viability (nuclei count vs DMSO), 5 days (fraction); higher = more cells survive
Imatinib + Foretinib = compound: Cc1ccc(NC(=O)c2ccc(CN3CCN(C)CC3)cc2)cc1Nc1nccc(-c2cccnc2)n1 [Imatinib] + COc1cc2c(Oc3ccc(NC(=O)C4(C(=O)Nc5ccc(F)cc5)CC4)cc3F)ccnc2cc1OCCCN1CCOCC1 [Foretinib] (partner 0.25 µM)
Summary of the method: (§1)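 Lung cancer cell lines were seeded in 1536-well plates and dosed by pin tool the next day, with either a single drug or a fixed anchor-drug dose combined with five library-drug doses (not always all listed) spaced in √10 steps. Five days later, one step fixed the cells and stained their nuclei (final 0.05% Triton X-100, 1% formaldehyde, 1 ug/ml Hoechst), and nuclei were counted on 4× images. Relative viability is the nuclei count in treated wells divided by the count in vehicle wells, and each value is the median of duplicate plates.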

Imatinib + Linsitinib = compound: Cc1ccc(NC(=O)c2ccc(CN3CCN(C)CC3)cc2)cc1Nc1nccc(-c2cccnc2)n1 [Imatinib] + C[C@]1(O)C[C@@H](c2nc(-c3ccc4ccc(-c5ccccc5)nc4c3)c3c(N)nccn32)C1 [Linsitinib] (partner 1 µM)
Summary of the method: as §1

Imatinib + OSI-027 = compound: Cc1ccc(NC(=O)c2ccc(CN3CCN(C)CC3)cc2)cc1Nc1nccc(-c2cccnc2)n1 [Imatinib] + COc1cccc2cc(-c3nc([C@H]4CC[C@H](C(=O)O)CC4)n4ncnc(N)c34)[nH]c12 [OSI-027] (partner 0.5 µM)
Summary of the method: as §1

Imatinib + Alpelisib = compound: Cc1ccc(NC(=O)c2ccc(CN3CCN(C)CC3)cc2)cc1Nc1nccc(-c2cccnc2)n1 [Imatinib] + Cc1nc(NC(=O)N2CCC[C@H]2C(N)=O)sc1-c1ccnc(C(C)(C)C(F)(F)F)c1 [Alpelisib] (partner 2 µM)
Summary of the method: as §1

Cell Line	relative viability (Imatinib + Foretinib; first compound 0.02 µM)	relative viability (Imatinib + Foretinib; first compound 0.2 µM)	relative viability (Imatinib + Foretinib; first compound 0.6325 µM)	relative viability (Imatinib + Foretinib; first compound 2 µM)	relative viability (Imatinib + Linsitinib; first compound 0.02 µM)	relative viability (Imatinib + Linsitinib; first compound 0.06325 µM)	relative viability (Imatinib + Linsitinib; first compound 0.2 µM)	relative viability (Imatinib + Linsitinib; first compound 0.6325 µM)	relative viability (Imatinib + Linsitinib; first compound 2 µM)	relative viability (Imatinib + OSI-027; first compound 0.02 µM)	relative viability (Imatinib + OSI-027; first compound 0.2 µM)	relative viability (Imatinib + OSI-027; first compound 0.6325 µM)	relative viability (Imatinib + OSI-027; first compound 2 µM)	relative viability (Imatinib + Alpelisib; first compound 0.02 µM)	relative viability (Imatinib + Alpelisib; first compound 0.06325 µM)	relative viability (Imatinib + Alpelisib; first compound 0.2 µM)	relative viability (Imatinib + Alpelisib; first compound 0.6325 µM)	relative viability (Imatinib + Alpelisib; first compound 2 µM)	relative viability (Imatinib + Foretinib; first compound 0.06325 µM)	relative viability (Imatinib + OSI-027; first compound 0.06325 µM)
HARA	0.836	0.976	0.886	0.971	1.16	0.906	1.05	0.994	0.969	0.47	0.518	0.583	0.404	1	0.501	0.822	0.697	0.804		
H3255	0.791		0.914	0.709	1.06	0.921	0.877	0.965	0.998	0.568	0.539	0.612	0.548	0.815		0.747	0.645	0.618	0.405	0.662
EMC-BAC-2	1.05	1.09	0.973	1.02	0.845	0.961	0.889	0.767	0.868	0.378	0.39	0.399	0.364	0.823	0.81	0.877	0.788	0.844	1.12	0.338
COR-L 105	1.2		0.948	1.08	1.08	1.14	1	1.02	0.978	0.771	0.65	0.653	0.685	1.29	1.35	1.18	0.882	1.01	1.23	0.739
NCI-H2405	1.03	1.05	0.986	1.02	1.05		0.869	0.762	0.956	0.629	0.645	0.592	0.641	0.922		0.823	0.643	0.95		
NCI-H1648										0.253	0.243		0.237							0.266
NCI-H1915	1.17	1.25	1.05	1.08	1.09		1.17	1.08	1.08	0.61	0.67	0.6	0.599	1.07		1.09	1.05	0.966		
SW 1573	1.04	1.03	0.893	0.908	0.879	0.965	0.799	0.685	0.809	0.708	0.685	0.573	0.548	0.826	0.785	1.13	0.842	0.927	0.469	0.24

Reference: the supplement of paper PMC10307832
